# Numbered stars: 1 amine (or outer) side, 2 acyl side, 3 side chain; on linkers, the order of the positions; unused ones are H or OH. Square brackets hold non-standard residues; d marks the D form. Peptide text beside a SMILES is read from it. * marks the point of attachment. 5FAM = O=C1OC2(c3ccc(O)cc3Oc3cc(O)ccc32)c2ccc(C(=O)*)cc21; NHCH2C6H4(4-CH2CONH2) = NC(=O)Cc1ccc(CN*)cc1; X1 = O=C(Cc1ccc(CN[*:1])cc1)[*:2]
# Target: TNFα (Homo sapiens, UniProt P01375)
# Experiment: MST binding affinity of resynthesized NNP hits to TNFα
# Design: purchased R&D Systems, Inc. 210-TA/CF
# Conditions: read-out: KD (nM) [95% conf. int], NNP2 library hit, target TNFα, one-site binding model
# Outline: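 Microscale thermophoresis at room temperature, triplicate, 15, 30 and 45 min incubations; targets labeled with RED-NHS 647 dye. Buffers (all 20 mM HEPES pH 7.4 unless noted): IL-6 150 mM KCl, 10 mM MgCl2, 0.1% Pluronic F-127; IL-6R 150 mM NaCl, 10 mM MgCl2, 0.05% Tween-20; TNFα 10 mM HEPES, 150 mM NaCl, 10 mM MgCl2, 0.05% Polysorbate-20; ASGPR adds 2 mM CaCl2, 0.05% Pluronic F-127, 1 mM DTT.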
# Chain of TNFα (P01375 77-233 limits assumed): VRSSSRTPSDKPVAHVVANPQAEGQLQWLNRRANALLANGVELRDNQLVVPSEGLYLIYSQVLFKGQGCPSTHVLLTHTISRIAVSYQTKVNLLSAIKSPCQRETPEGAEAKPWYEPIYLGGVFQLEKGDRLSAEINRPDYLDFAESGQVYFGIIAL
row,SMILES,Kd [nM]
1,CC(C)C[C@H](NC(=O)[C@@H](CCCNC(=N)N)NC(=O)[C@@H](CCC(=O)O)NC(=O)Cc1ccc(CNC(=O)[C@H](Cc2ccccc2)NC(=O)CNC(=O)[C@@H](C)NC(=O)Cc2ccc(CNC(=O)[C@@H](NC(=O)[C@@H](CCCNC(=N)N)NC(=O)[C@H]3CCCN3C(=O)Cc3ccc(CNC(=O)[C@@H](NC(=O)[C@@H](CCC(=O)O)NC(=O)[C@@H](Cc4ccccc4)NC(=O)Cc4ccc(CNC(=O)[C@H](Cc5ccccc5)NC(=O)[C@@H](C)NC(=O)[C@@H](C)NC(=O)Cc5ccc(CNC(=O)[C@H](CC(C)C)NC(=O)[C@H](NC(=O)[C@@H](CCCCN)NC(=O)c6ccc7c(c6)C(=O)OC76c7ccc(O)cc7Oc7cc(O)ccc76)C(C)C)cc5)cc4)C(C)C)cc3)C(C)C)cc2)cc1)C(=O)NCc1ccc(CC(=O)N2CCC[C@@H]2C(=O)N[C@@H](C(=O)NCC(=O)NCc2ccc(CC(=O)N[C@H](Cc3c[nH]c4ccccc34)C(=O)N[C@H](CCCCN)C(=O)N[C@@H](CC(C)C)C(=O)NCc3ccc(CC(=O)N4CCC[C@@H]4C(=O)N[C@H](C)C(=O)N[C@@H](C)C(=O)NCc4ccc(CC(N)=O)cc4)cc3)cc2)C(C)C)cc1 [TNF-39-10] (5FAM-[dK][dV]L[X1][dA][dA]F[X1][dF][dE]V[X1][dP][dR]V[X1][dA]GF[X1][dE][dR]L[X1][dP][dV]G[X1][dW][dK]L[X1][dP][dA]A-{NHCH2C6H4(4-CH2CONH2)}),38
2,CC(C)C[C@H](NC(=O)[C@@H](CCCCN)NC(=O)[C@@H](Cc1c[nH]c2ccccc12)NC(=O)Cc1ccc(CNC(=O)CNC(=O)[C@H](NC(=O)[C@H]2CCCN2C(=O)Cc2ccc(CNC(=O)[C@H](Cc3ccccc3)NC(=O)[C@@H](CCCNC(=N)N)NC(=O)[C@@H](CC(N)=O)NC(=O)Cc3ccc(CNC(=O)[C@H](Cc4ccccc4)NC(=O)[C@@H](CCCCN)NC(=O)[C@@H](C)NC(=O)Cc4ccc(CNC(=O)[C@H](C)NC(=O)[C@@H](CCCNC(=N)N)NC(=O)[C@@H](Cc5ccccc5)NC(=O)Cc5ccc(CNC(=O)[C@@H](NC(=O)[C@@H](CCC(=O)O)NC(=O)[C@@H](Cc6ccccc6)NC(=O)Cc6ccc(CNC(=O)[C@H](CC(C)C)NC(=O)[C@@H](CCCNC(=N)N)NC(=O)[C@@H](CC(C)C)NC(=O)Cc7ccc(CNC(=O)[C@H](CC(C)C)NC(=O)[C@H](NC(=O)[C@@H](CCCCN)NC(=O)c8ccc9c(c8)C(=O)OC98c9ccc(O)cc9Oc9cc(O)ccc98)C(C)C)cc7)cc6)C(C)C)cc5)cc4)cc3)cc2)C(C)C)cc1)C(=O)NCc1ccc(CC(=O)N[C@H](Cc2ccc(O)cc2)C(=O)N[C@H](CCCNC(=N)N)C(=O)N[C@@H](Cc2ccccc2)C(=O)NCc2ccc(CC(N)=O)cc2)cc1 [TNF-39-11] (5FAM-[dK][dV]L[X1][dL][dR]L[X1][dF][dE]V[X1][dF][dR]A[X1][dA][dK]F[X1][dN][dR]F[X1][dP][dV]G[X1][dW][dK]L[X1][dY][dR]F-{NHCH2C6H4(4-CH2CONH2)}),86
3,CC(C)C[C@H](NC(=O)[C@@H](CCCNC(=N)N)NC(=O)CNC(=O)Cc1ccc(CNC(=O)[C@H](CC(C)C)NC(=O)[C@H](NC(=O)[C@@H](CO)NC(=O)c2ccc3c(c2)C(=O)OC32c3ccc(O)cc3Oc3cc(O)ccc32)C(C)C)cc1)C(=O)NCc1ccc(CC(=O)N[C@H](Cc2ccccc2)C(=O)N[C@H](CCC(=O)O)C(=O)N[C@H](C(=O)NCc2ccc(CC(=O)N[C@H](Cc3ccccc3)C(=O)N[C@H](CCCCN)C(=O)N[C@@H](CC(C)C)C(=O)NCc3ccc(CC(=O)N[C@H](Cc4ccc(O)cc4)C(=O)N[C@H](CCCCN)C(=O)N[C@@H](C)C(=O)NCc4ccc(CC(=O)N[C@H](CCC(=O)O)C(=O)N[C@H](Cc5c[nH]c6ccccc56)C(=O)N[C@@H](C)C(=O)NCc5ccc(CC(=O)N[C@H](C)C(=O)N[C@H](CCCNC(=N)N)C(=O)N[C@@H](CC(C)C)C(=O)NCc6ccc(CC(=O)N[C@H](CCC(=O)O)C(=O)N[C@H](Cc7ccc(O)cc7)C(=O)N[C@@H](Cc7ccccc7)C(=O)NCc7ccc(CC(=O)N[C@H](Cc8ccc(O)cc8)C(=O)N[C@H](CCCNC(=N)N)C(=O)N[C@@H](Cc8ccccc8)C(=O)NCc8ccc(CC(N)=O)cc8)cc7)cc6)cc5)cc4)cc3)cc2)C(C)C)cc1 [TNF-39-13] (5FAM-[dS][dV]L[X1]G[dR]L[X1][dF][dE]V[X1][dF][dK]L[X1][dY][dK]A[X1][dE][dW]A[X1][dA][dR]L[X1][dE][dY]F[X1][dY][dR]F-{NHCH2C6H4(4-CH2CONH2)}),40
4,CC(C)C[C@H](NC(=O)[C@@H](CCCCN)NC(=O)[C@@H](CC(C)C)NC(=O)Cc1ccc(CNC(=O)[C@H](CC(C)C)NC(=O)[C@@H](CCCNC(=N)N)NC(=O)[C@@H](CC(C)C)NC(=O)Cc2ccc(CNC(=O)[C@H](CC(C)C)NC(=O)[C@@H](CC(C)C)NC(=O)[C@@H](Cc3ccc(O)cc3)NC(=O)c3ccc4c(c3)C(=O)OC43c4ccc(O)cc4Oc4cc(O)ccc43)cc2)cc1)C(=O)NCc1ccc(CC(=O)N[C@H](Cc2ccccc2)C(=O)N[C@H](CCCNC(=N)N)C(=O)N[C@@H](C)C(=O)NCc2ccc(CC(=O)N[C@H](C)C(=O)N[C@H](CCCCN)C(=O)N[C@@H](Cc3ccccc3)C(=O)NCc3ccc(CC(=O)N[C@H](Cc4ccccc4)C(=O)N[C@@H](C(=O)N[C@@H](C)C(=O)NCc4ccc(CC(=O)N5CCC[C@@H]5C(=O)N[C@@H](C(=O)NCC(=O)NCc5ccc(CC(=O)N[C@@H](C(=O)N[C@H](Cc6c[nH]cn6)C(=O)N[C@@H](CC(C)C)C(=O)NCc6ccc(CC(=O)N[C@@H](C(=O)N[C@H](CO)C(=O)N[C@H](C(=O)NCc7ccc(CC(N)=O)cc7)C(C)C)[C@H](C)O)cc6)[C@H](C)O)cc5)C(C)C)cc4)[C@H](C)O)cc3)cc2)cc1 [TNF-39-14] (5FAM-[dY][dL]L[X1][dL][dR]L[X1][dL][dK]L[X1][dF][dR]A[X1][dA][dK]F[X1][dF][dT]A[X1][dP][dV]G[X1][dT][dH]L[X1][dT][dS]V-{NHCH2C6H4(4-CH2CONH2)}),36
5,CC(C)C[C@H](NC(=O)[C@@H](CCCNC(=N)N)NC(=O)CNC(=O)Cc1ccc(CNC(=O)[C@H](CC(C)C)NC(=O)[C@H](NC(=O)[C@@H](CCCCN)NC(=O)c2ccc3c(c2)C(=O)OC32c3ccc(O)cc3Oc3cc(O)ccc32)C(C)C)cc1)C(=O)NCc1ccc(CC(=O)N[C@H](Cc2ccccc2)C(=O)N[C@H](CCC(=O)O)C(=O)N[C@H](C(=O)NCc2ccc(CC(=O)N[C@H](Cc3ccccc3)C(=O)N[C@H](CCCNC(=N)N)C(=O)N[C@@H](C)C(=O)NCc3ccc(CC(=O)N[C@H](Cc4c[nH]c5ccccc45)C(=O)N[C@H](CCCNC(=N)N)C(=O)N[C@H](C(=O)NCc4ccc(CC(=O)N[C@H](CCC(=O)O)C(=O)N[C@H](CCCNC(=N)N)C(=O)N[C@@H](CC(C)C)C(=O)NCc5ccc(CC(=O)N[C@H](Cc6c[nH]cn6)C(=O)N[C@H](CCC(=O)O)C(=O)N[C@@H](CC(C)C)C(=O)NCc6ccc(CC(=O)N[C@H](CCCCN)C(=O)N[C@H](Cc7ccccc7)C(=O)N[C@@H](Cc7ccccc7)C(=O)NCc7ccc(CC(=O)N[C@H](Cc8ccc(O)cc8)C(=O)N[C@H](CCCNC(=N)N)C(=O)N[C@@H](Cc8ccccc8)C(=O)NCc8ccc(CC(N)=O)cc8)cc7)cc6)cc5)cc4)C(C)C)cc3)cc2)C(C)C)cc1 [TNF-39-15] (5FAM-[dK][dV]L[X1]G[dR]L[X1][dF][dE]V[X1][dF][dR]A[X1][dW][dR]V[X1][dE][dR]L[X1][dH][dE]L[X1][dK][dF]F[X1][dY][dR]F-{NHCH2C6H4(4-CH2CONH2)}),46

# — US20230393140A1, “BINDING ASSAYS INVOLVING A PLURALITY OF SYNTHETIC COMPOUNDS, TARGETS, AND COUNTER TARGETS” (SRI International, priority 2020, published 2023)
